# Laboratory results reported in the supplement of paper PMC11208160.
# Assay: recombinant barcode read abundance after kanamycin selection (control-corrected) (log10(CPM+1)); higher = more efficient recombination; sequences stand for … in AGTGCAGAGAAAATCGGCCAGTTTTCTCTGCCTGCAGTCCGCATGCCGT…AGATTTATGCAGCGGACTGCCTTTCTCCCAAAGTGATAAACCGGACAGTATCATGGACCGGTTTTCCCGGTAATCCGTATTTGCAAGGTTGGTTTCACT; site = the 11-nt target
# Outline: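 Targets were screened in pooled form in E. coli against IS621 bridge RNA target-binding loops. Recombination efficiency is based on barcode counts at recombinant junctions in counts per million, averaged and corrected for the control. Numbers are shown as log10(CPM+1), with duplicate plates on chloramphenicol/ampicillin LB agar (control) or chloramphenicol/ampicillin/kanamycin with 0.1 mM IPTG.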
# 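Note: IS621 recombinase and bridge RNA in Escherichia coli cells.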
row,Sequence,recombinant barcode read abundance (log10)
1,TCGTGCCCTTGGGTTCTAACCTGTTGCTG (site TCGTGCCCTAA),0.0676
2,TCGTGCCCTTGGGTTCTAACCTGTTGCTG (site TCGTGCCCTCA),0.156
3,TCGTTCCCTTGGGTTCTAACCTGTTGCTT (site TCGTTCCCTAA),0.105
4,TCGTTCCCTTGGGTTCTAACCTGTTGCTT (site TCGTTGCCTAG),0.0502
5,TCGTTGCCTTGGGTTCTAACCTGTTGCCT (site TCGTTCCCTAA),0.695
6,TCGTTGCCTTGGGTTCTAACCTGTTGCCT (site TCGTTGCCTAG),0.533
7,TCTAACCCTTGGGTTCTAACCTGTTGCGG (site TCAAACCCTCC),0.332
8,TCTAACCCTTGGGTTCTAACCTGTTGCGG (site TCCAACCCTCC),0.0105
9,TCTAACCCTTGGGTTCTAACCTGTTGCGG (site TCGAACCCTCC),0.091
10,TCTAACCCTTGGGTTCTAACCTGTTGCGG (site TCTAACCCTCC),1.09
11,TCTAAGTCTTGGGTTCTAACCTGTTGCCG (site TCTAAGTCTAG),0.0709
12,TCTAAGTCTTGGGTTCTAACCTGTTGCCG (site TCTAAGTCTCG),0.137
13,TCTAAGTCTTGGGTTCTAACCTGTTGCCG (site TCTAAGTCTGG),0.0885
14,TCTAAGTCTTGGGTTCTAACCTGTTGCCG (site TCTAAGTCTTG),0.483
15,TCTACTTCTTGGGTTCTAACCTGTTGCCT (site TCTACATCTAG),0.0183
16,TCTACTTCTTGGGTTCTAACCTGTTGCCT (site TCTACCTCTAG),0.123
17,TCTACTTCTTGGGTTCTAACCTGTTGCCT (site TCTACGTCTAG),0.0937
18,TCTACTTCTTGGGTTCTAACCTGTTGCCT (site TCTACTTCTAG),0.136
19,TCTAGACCTTGGGTTCTAACCTGTTGCCT (site TCTAGAACTAG),0
20,TCTAGACCTTGGGTTCTAACCTGTTGCCT (site TCTAGACCTAG),0.0778
21,TCTAGACCTTGGGTTCTAACCTGTTGCCT (site TCTAGAGCTAG),0.139
22,TCTAGACCTTGGGTTCTAACCTGTTGCCT (site TCTAGATCTAG),0.03

row,Sequence,recombinant barcode read abundance (log10)
1,TCTAGAGCTTGGGTTCTAACCTGTTGCGG (site CCTCGAGCTCC),0.176
2,TCTAGAGCTTGGGTTCTAACCTGTTGCGG (site TCTAGAGCTCC),1.61
3,TCTAGTCCTTGGGTTCTAACCTGTTGCCT (site TCTAGACCTTG),0.418
4,TCTAGTCCTTGGGTTCTAACCTGTTGCCT (site TCTAGTCCTAG),0.036
5,TCTCAACCTTGGGTTCTAACCTGTTGCCT (site TCTAAACCTAG),0.0445
6,TCTCAACCTTGGGTTCTAACCTGTTGCCT (site TCTCAACCTAG),1.33
7,TCTCAGGCTTGGGTTCTAACCTGTTGCCG (site TCACAGGCTCG),0.203
8,TCTCAGGCTTGGGTTCTAACCTGTTGCCG (site TCTCAGGCTCG),0.0148
9,TCTCAGTCTTGGGTTCTAACCTGTTGCGG (site TCCCAGTCTCA),0.0631
10,TCTCAGTCTTGGGTTCTAACCTGTTGCGG (site TCTCAGTCTCC),1.14
11,TCTCCAGCTTGGGTTCTAACCTGTTGCCT (site TCGCAAGCTAG),0.0305
12,TCTCCAGCTTGGGTTCTAACCTGTTGCCT (site TCTCCAGCTAG),1.13
13,TCTCGAGCTTGGGTTCTAACCTGTTGCGA (site CTGGCGCCTAT),0.839
14,TCTCGAGCTTGGGTTCTAACCTGTTGCGA (site TCTCGAGCTTC),0.78
15,TCTCGGACTTGGGTTCTAACCTGTTGCCT (site TCACGGACTAG),0.147
16,TCTCGGACTTGGGTTCTAACCTGTTGCCT (site TCCCGGACTAG),0.0144
17,TCTCGGACTTGGGTTCTAACCTGTTGCCT (site TCGCGGACTAG),0.0137
18,TCTCGGACTTGGGTTCTAACCTGTTGCCT (site TCTCGGACTAG),0.249
19,TCTCTCGCTTGGGTTCTAACCTGTTGCCT (site CAGAATCCTCC),0.108
20,TCTCTCGCTTGGGTTCTAACCTGTTGCCT (site TCTCTCGCTAG),0.47
21,TCTGATCCTTGGGTTCTAACCTGTTGCCT (site TCTCACCCTAG),0.0615
22,TCTGATCCTTGGGTTCTAACCTGTTGCCT (site TCTGATCCTAG),0.7

row,Sequence,recombinant barcode read abundance (log10)
1,TCTGGGCCTTGGGTTCTAACCTGTTGCTA (site TCTGGGCCTAA),0.42
2,TCTGGGCCTTGGGTTCTAACCTGTTGCTA (site TCTGGGCCTTA),0.364
3,TCTTAGACTTGGGTTCTAACCTGTTGCGA (site CAAACCTCTGT),0.0411
4,TCTTAGACTTGGGTTCTAACCTGTTGCGA (site TCTTAGACTTC),0.638
5,TCTTAGACTTGGGTTCTAACCTGTTGCGG (site ACTTAGACTCC),0.172
6,TCTTAGACTTGGGTTCTAACCTGTTGCGG (site TCTTAGACTCC),1.47
7,TCTTATTCTTGGGTTCTAACCTGTTGCGT (site TCTAATTCTAC),0.0715
8,TCTTATTCTTGGGTTCTAACCTGTTGCGT (site TCTCATTCTAC),0.0847
9,TCTTATTCTTGGGTTCTAACCTGTTGCGT (site TCTGATTCTAC),0.0368
10,TCTTATTCTTGGGTTCTAACCTGTTGCGT (site TCTTATTCTAC),0.258
11,TCTTGGACTTGGGTTCTAACCTGTTGCAC (site AGGGACCCTAG),0.0242
12,TCTTGGACTTGGGTTCTAACCTGTTGCAC (site TCTTGGACTGT),0.104
13,TCTTGGACTTGGGTTCTAACCTGTTGCTC (site TCTTGGACTAA),0.0489
14,TCTTGGACTTGGGTTCTAACCTGTTGCTC (site TCTTGGACTCA),0.153
15,TCTTGGACTTGGGTTCTAACCTGTTGCTC (site TCTTGGACTGA),0.165
16,TCTTGGACTTGGGTTCTAACCTGTTGCTC (site TCTTGGACTTA),0.0183
17,TCTTGTCCTTGGGTTCTAACCTGTTGCGG (site TCTTGTCCTAC),0.0164
18,TCTTGTCCTTGGGTTCTAACCTGTTGCGG (site TCTTGTCCTCC),0.526
19,TCTTGTCCTTGGGTTCTAACCTGTTGCGG (site TCTTGTCCTGC),0.104
20,TCTTGTCCTTGGGTTCTAACCTGTTGCGG (site TCTTGTCCTTC),0.0135
21,TCTTTAGCTTGGGTTCTAACCTGTTGCAG (site CTAAGGTCTTA),0.24
22,TCTTTAGCTTGGGTTCTAACCTGTTGCAG (site TCTTTAGCTCT),0.236

row,Sequence,recombinant barcode read abundance (log10)
1,TGAAACTCTTGGGTTCTAACCTGTTGCGG (site GTCGGTCCTGT),0.27
2,TGAAACTCTTGGGTTCTAACCTGTTGCGG (site TGAAACTCTCC),1.16
3,TGAAAGACTTGGGTTCTAACCTGTTGCCG (site GACGGACCTAT),0.475
4,TGAAAGACTTGGGTTCTAACCTGTTGCCG (site TGAAAGACTCG),0.762
5,TGAAGGTCTTGGGTTCTAACCTGTTGCCT (site TGAAAGTCTAG),0.213
6,TGAAGGTCTTGGGTTCTAACCTGTTGCCT (site TGAACGTCTAG),0.175
7,TGAAGGTCTTGGGTTCTAACCTGTTGCCT (site TGAAGGTCTAG),0.485
8,TGAAGGTCTTGGGTTCTAACCTGTTGCCT (site TGAATGTCTAG),0.362
9,TGACCTACTTGGGTTCTAACCTGTTGCCA (site CTCTACTCTAC),0.242
10,TGACCTACTTGGGTTCTAACCTGTTGCCA (site TGACCTACTTG),0.133
11,TGACTCTCTTGGGTTCTAACCTGTTGCCT (site TAACTCTCTAG),0.163
12,TGACTCTCTTGGGTTCTAACCTGTTGCCT (site TCACTCTCTAG),0.172
13,TGACTCTCTTGGGTTCTAACCTGTTGCCT (site TGACTCTCTAG),1.02
14,TGACTCTCTTGGGTTCTAACCTGTTGCCT (site TTACTCTCTAG),0.228
15,TGAGAAGCTTGGGTTCTAACCTGTTGCCT (site TGACCAGCTAG),0.299
16,TGAGAAGCTTGGGTTCTAACCTGTTGCCT (site TGAGAAGCTAG),1.1
17,TGAGCACCTTGGGTTCTAACCTGTTGCCT (site AGAGGACCTAG),0.158
18,TGAGCACCTTGGGTTCTAACCTGTTGCCT (site TGAGCACCTAG),1.74
19,TGAGGCACTTGGGTTCTAACCTGTTGCCT (site TGAGGATCTAG),0.03
20,TGAGGCACTTGGGTTCTAACCTGTTGCCT (site TGAGGCACTAG),0.474
